Columns and labels:
[1] = target: T1, SIRT1 (Homo sapiens, UniProt Q96EB6); assay: Trp mass spectrometry assay of SIRT1 activity; format: biochemical; details: for Emax: read-out: Trp % Fold Act
T1 sequence (Q96EB6 1-747): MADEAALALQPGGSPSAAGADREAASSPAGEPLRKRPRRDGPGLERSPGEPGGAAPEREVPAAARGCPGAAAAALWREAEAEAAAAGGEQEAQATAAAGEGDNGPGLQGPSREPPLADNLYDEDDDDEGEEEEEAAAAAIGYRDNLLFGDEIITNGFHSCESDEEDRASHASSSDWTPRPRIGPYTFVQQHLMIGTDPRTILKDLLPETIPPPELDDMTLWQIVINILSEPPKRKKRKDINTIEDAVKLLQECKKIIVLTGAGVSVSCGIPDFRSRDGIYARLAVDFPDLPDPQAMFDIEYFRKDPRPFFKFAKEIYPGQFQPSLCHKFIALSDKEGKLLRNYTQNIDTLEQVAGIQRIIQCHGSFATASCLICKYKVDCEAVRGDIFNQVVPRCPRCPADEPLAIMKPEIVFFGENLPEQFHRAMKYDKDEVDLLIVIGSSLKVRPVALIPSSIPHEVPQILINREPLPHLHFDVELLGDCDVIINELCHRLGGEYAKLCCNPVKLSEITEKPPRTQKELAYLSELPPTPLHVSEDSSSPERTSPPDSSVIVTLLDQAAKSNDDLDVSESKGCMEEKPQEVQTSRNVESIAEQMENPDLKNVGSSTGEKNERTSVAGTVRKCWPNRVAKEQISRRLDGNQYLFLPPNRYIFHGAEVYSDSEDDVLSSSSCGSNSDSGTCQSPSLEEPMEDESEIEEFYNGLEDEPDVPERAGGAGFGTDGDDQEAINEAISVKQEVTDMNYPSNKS
Procedure, shortened: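 Activation readout: EC1.5 (concentration raising activity 50% over control) and percent maximum activation, from mass-spec quantitation of OAADPR or deacetylated Trp peptide. Reaction: 0.5 μM acetylated Trp peptide, 120 μM βNAD+, 10 nM bacterially expressed N-His SIRT1, pH 7.5 HEPES buffer with […], 25 min at 25° C.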

[2] = target: T1, SIRT1; assay: TAMRA based mass spectrometry assay of SIRT1 activity; format: biochemical; details: for Emax: read-out: TAMRA % Fold Act
Procedure, shortened: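 Deacetylation of a biotinylated, TAMRA-tagged p53-based peptide (0.5 μM) by 10 nM His-tagged SIRT1 with 120 μM βNAD+, 25 °C for 25 min, pH 8 Tris-acetate buffer, across a compound concentration range. Quenched by formic acid and read by mass spec as product peptide or OAADPR; activity relative to DMSO reactions, nicotinamide defining maximal inhibition.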

[3] = Trp assay, concentration giving 150% activation of SIRT1
[4] = Trp assay, percent maximum fold activation
[5] = TAMRA assay, concentration giving 150% activation of SIRT1
[6] = TAMRA assay, percent maximum fold activation
[7] = Trp peptide substrate, concentration giving 150% activation of SIRT1
[8] = Trp peptide substrate, percent maximum fold activation
[9] = TAMRA peptide substrate, concentration giving 150% activation of SIRT1
[10] = TAMRA peptide substrate, percent maximum fold activation
[11] = concentration of test compound giving 150% activation of SIRT1, Trp peptide substrate
[12] = percent maximum fold activation of SIRT1, Trp peptide substrate
[13] = concentration of test compound giving 150% activation of SIRT1, TAMRA peptide substrate
[14] = percent maximum fold activation of SIRT1, TAMRA peptide substrate

Cc1cc(NC(=O)c2cnc3ccc(-c4ccccc4F)nn23)cc(C)n1 [Compound 257]
Trp EC1.5 (μM) [1, 3]: B (EC1.5 1-25 μM)
Emax [1, 4]: < 350%
TAMRA EC1.5 (μM) [2, 5]: A (EC1.5<1 μM)
Emax [2, 6]: < 350%

Cc1nc2ccc(-c3ccccc3C(F)(F)F)nn2c1NC(=O)c1ccccn1 [Compound 375]
Trp EC1.5 (μM) [1, 3]: C (EC1.5>25 μM)
Emax [1, 4]: < 350%
TAMRA EC1.5 (μM) [2, 5]: B (EC1.5 1-25 μM)
Emax [2, 6]: ≥ 350%

O=C(Nc1ncn2ccc(-c3ccccc3C(F)(F)F)nc12)c1ccccn1 [Compound 455, N-(2-(2-(trifluoromethyl)phenyl)imidazo[1,5-a]pyrimidin-8-yl)picolinamide]
Trp EC1.5 [1, 7]: C (EC1.5>25 μM)
Emax [1, 8]: < 350%
TAMRA EC1.5 [2, 9]: B (EC1.5 1-25 μM)
Emax [2, 10]: < 350%

Cc1cc(C)nc(C(=O)Nc2cnc3ccc(-c4ccccc4C(F)(F)F)nn23)c1 [Compound 436]
Trp EC1.5 [1, 7]: C (EC1.5>25 μM)
Emax [1, 8]: < 350%
TAMRA EC1.5 [2, 9]: A (EC1.5<1 μM)
Emax [2, 10]: ≥ 350%

Cc1nn2ccc(-c3ccccc3C(F)(F)F)nc2c1C(=O)Nc1cccc(O)n1 [Compound 577]
Trp EC1.5 [1, 7]: A (EC1.5<1 μM)
Emax [1, 8]: < 350%
TAMRA EC1.5 [2, 9]: B (EC1.5 1-25 μM)
Emax [2, 10]: < 350%

Cc1cc(C(=O)Nc2cnc3ccc(-c4ccccc4C(F)(F)F)nn23)nc(C)n1 [Compound 275]
Trp EC1.5 (μM) [1, 3]: B (EC1.5 1-25 μM)
Emax [1, 4]: < 350%
TAMRA EC1.5 (μM) [2, 5]: A (EC1.5<1 μM)
Emax [2, 6]: ≥ 350%

Cc1cc(NC(=O)c2cnc3ccc(-c4ccccc4C(F)(F)F)nn23)cc(OC[C@@H](O)CO)n1 [Compound 558]
Trp EC1.5 [1, 7]: A (EC1.5<1 μM)
Emax [1, 8]: ≥ 350%
TAMRA EC1.5 [2, 9]: A (EC1.5<1 μM)
Emax [2, 10]: ≥ 350%

COCCOc1nccc(NC(=O)c2cnc3ccc(-c4ccccc4C(F)(F)F)nn23)n1 [Compound 634]
Trp EC1.5 (μM) [1, 3]: A (EC1.5<1 μM)
Emax [1, 4]: ≥ 350%
TAMRA EC1.5 (μM) [2, 5]: A (EC1.5<1 μM)
Emax [2, 6]: ≥ 350%

Cc1cc(NC(=O)c2cnc3ccc(-c4ccccc4Cl)nn23)cc(C)n1 [Compound 260]
Trp EC1.5 (μM) [1, 3]: B (EC1.5 1-25 μM)
Emax [1, 4]: < 350%
TAMRA EC1.5 (μM) [2, 5]: A (EC1.5<1 μM)
Emax [2, 6]: ≥ 350%

Cc1cccc(NC(=O)c2cnc3ccc(-c4ccccc4C(F)(F)F)nn23)n1 [Compound 78]
Trp EC1.5 (μM) [1, 11]: A (EC1.5<1 μM)
Emax [1, 12]: ≥ 350%
TAMRA EC1.5 (μM) [2, 13]: A (EC1.5<1 μM)
Emax [2, 14]: ≥ 350%

Cc1csc(NC(=O)c2cnn3ccc(-c4ccccc4C(F)(F)F)nc23)n1 [Compound 508]
Trp EC1.5 [1, 7]: A (EC1.5<1 μM)
Emax [1, 8]: ≥ 350%
TAMRA EC1.5 [2, 9]: A (EC1.5<1 μM)
Emax [2, 10]: ≥ 350%

Cc1nc2ccc(-c3ccccc3C(F)(F)F)nn2c1C(=O)Nc1cnccn1 [Compound 463]
Trp EC1.5 [1, 7]: B (EC1.5 1-25 μM)
Emax [1, 8]: ≥ 350%
TAMRA EC1.5 [2, 9]: A (EC1.5<1 μM)
Emax [2, 10]: ≥ 350%

Cc1ncccc1NC(=O)c1c(C)nn2ccc(-c3ccccc3Br)nc12 [Compound 824]
Trp EC1.5 (μM) [1, 3]: A (EC1.5<1 μM)
Emax [1, 4]: ≥ 350%
TAMRA EC1.5 (μM) [2, 5]: B (EC1.5 1-25 μM)
Emax [2, 6]: ≥ 350%

Cc1ccc(NC(=O)c2cnn3ccc(-c4ccccc4OC(F)(F)F)nc23)cn1 [Compound 621]
Trp EC1.5 (μM) [1, 3]: A (EC1.5<1 μM)
Emax [1, 4]: ≥ 350%
TAMRA EC1.5 (μM) [2, 5]: A (EC1.5<1 μM)
Emax [2, 6]: ≥ 350%

Cc1ncccc1NC(=O)c1cnn2ccc(-c3ccccc3OC(F)(F)F)nc12 [Compound 622]
Trp EC1.5 (μM) [1, 3]: A (EC1.5<1 μM)
Emax [1, 4]: ≥ 350%
TAMRA EC1.5 (μM) [2, 5]: B (EC1.5 1-25 μM)
Emax [2, 6]: < 350%

O=C(Nc1cccc(N2CCC2)n1)c1cnc2ccc(-c3ccccc3C(F)F)nn12 [Compound 51]
Trp EC1.5 (μM) [1, 11]: B (EC1.5 1-25 μM)
Emax [1, 12]: ≥ 350%
TAMRA EC1.5 (μM) [2, 13]: A (EC1.5<1 μM)
Emax [2, 14]: ≥ 350%

Reference: patent US9957271B2, “Substituted bicyclic aza-heterocycles and analogues as sirtuin modulators” (GlaxoSmithKline, LLC, priority 2012, dated 2018)
